Measured values: article PMC8224985 (European journal of medicinal chemistry, 2020)
pKi: −log10 of the molar value.

How the values were obtained:
[1] = target: T1, human SphK2 (Homo sapiens, UniProt Q9NRA0); experiment: Recombinant hSphK2 activity, single-concentration screen; details: for inhibition at 0.3 µM: read-out: inhibition of hSphK2 activity, compound 0.3 μM
T1 sequence (Q9NRA0 1-654): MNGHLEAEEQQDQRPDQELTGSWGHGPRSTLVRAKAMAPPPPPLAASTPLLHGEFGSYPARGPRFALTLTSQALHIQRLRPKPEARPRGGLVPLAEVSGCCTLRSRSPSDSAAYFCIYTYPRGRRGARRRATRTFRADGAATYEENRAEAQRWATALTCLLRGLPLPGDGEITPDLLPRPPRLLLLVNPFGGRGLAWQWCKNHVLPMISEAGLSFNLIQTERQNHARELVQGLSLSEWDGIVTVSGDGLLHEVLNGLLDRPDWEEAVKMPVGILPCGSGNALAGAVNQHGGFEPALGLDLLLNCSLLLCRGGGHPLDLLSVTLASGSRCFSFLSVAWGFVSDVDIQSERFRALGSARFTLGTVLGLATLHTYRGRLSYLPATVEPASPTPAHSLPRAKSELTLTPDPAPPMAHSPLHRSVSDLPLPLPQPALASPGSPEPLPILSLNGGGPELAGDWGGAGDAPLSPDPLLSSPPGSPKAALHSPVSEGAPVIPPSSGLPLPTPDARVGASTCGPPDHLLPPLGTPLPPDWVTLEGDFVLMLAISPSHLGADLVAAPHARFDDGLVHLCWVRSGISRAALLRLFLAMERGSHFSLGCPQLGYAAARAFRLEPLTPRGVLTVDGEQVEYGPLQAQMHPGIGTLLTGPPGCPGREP

[2] = target: human SphK1 (Homo sapiens, UniProt Q9NYA1); experiment: Recombinant hSphK1 activity, single-concentration screen; details: compound 1 μM
[3] = tested on: U937 cells; experiment: S1P levels in U937 cells by LC-MS/MS; assay type: cell-based; details: 0.1 to 1 μM, 2 hours, duplicate
[4] = tested on: SphK2; experiment: FTY720-P formation in U937 cells treated with FTY720; assay type: cell-based; details: 1 μM FTY720, compound 0.1 μM to 1 μM, 2 hours, duplicate
[5] = target: SphK2; details: read-out: SphK2 Ki; cited from earlier work

Chain of human SphK1 (Q9NYA1 whole entry): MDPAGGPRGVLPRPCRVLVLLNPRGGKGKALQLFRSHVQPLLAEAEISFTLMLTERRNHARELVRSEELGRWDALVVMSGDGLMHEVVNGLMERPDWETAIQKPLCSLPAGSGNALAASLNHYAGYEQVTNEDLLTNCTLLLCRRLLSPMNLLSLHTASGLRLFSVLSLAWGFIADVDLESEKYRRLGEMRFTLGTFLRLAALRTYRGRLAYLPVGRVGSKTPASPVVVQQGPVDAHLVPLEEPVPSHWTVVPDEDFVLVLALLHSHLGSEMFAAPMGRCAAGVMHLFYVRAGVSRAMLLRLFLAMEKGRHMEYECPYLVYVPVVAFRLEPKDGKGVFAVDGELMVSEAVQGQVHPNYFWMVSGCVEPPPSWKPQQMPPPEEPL

inhibition at 0.3 µM [1] [%] | Structure (SMILES) | further results
70 | CCCCCCCCCCn1ccc2cc(-c3noc([C@@H]4CCCN4C(=N)N)n3)ccc21 [Compound 6s, (S)-Amino(2-(3-(1-decyl-1H-indol-5-yl)-1,2,4-oxadiazol-5-yl)pyrrolidin-1-yl)methaniminium chloride] | –
32 | CCCCCCCCCCn1ccc2ccc(-c3noc([C@@H]4CCCN4C(=N)N)n3)cc21 [Compound 6w, (S)-Amino(2-(3-(1-decyl-1H-indol-6-yl)-1,2,4-oxadiazol-5-yl)pyrrolidin-1-yl)methaniminium chloride] | –
– | CCCCCCCCCn1cc(-c2noc(C[C@@H]3CCCN3C(=N)N)n2)c2ccccc21.Cl [Compound 11, (S)-Amino(2-((3-(1-nonyl-1H-indol-3-yl)-1,2,4-oxadiazol-5-yl)methyl)pyrrolidin-1-yl)methaniminium chloride] | effect on hSphK1 activity (in words) [2]: inactive; effect on hSphK2 activity (in words) ([1]; compound 0.3 μM): inactive
– | CCCCCCCCCn1ccc2cc(-c3noc([C@@H]4CCCN4C(=N)N)n3)ccc21.Cl [Compound 6r, (S)-Amino(2-(3-(1-nonyl-1H-indol-5-yl)-1,2,4-oxadiazol-5-yl)pyrrolidin-1-yl)methaniminium chloride] | S1P levels in cells [3]: dose-dependent decrease; FTY720-P levels in cells [4]: concomitant decrease in FTY720-P in a dose dependent manner
36 | CCCCCCCCCCn1ccc2c(-c3noc([C@@H]4CCCN4C(=N)N)n3)cccc21 [Compound 6n, (S)-Amino(2-(3-(1-decyl-1H-indol-4-yl)-1,2,4-oxadiazol-5-yl)pyrrolidin-1-yl)methaniminium chloride] | –
– | O=C(NCc1ccncc1)C12CC3CC(C1)CC(c1ccc(Cl)cc1)(C3)C2 [ABC294640] | pKi [5]: 5.00

Structure (SMILES) | inhibition at 0.3 µM [1] [%] | further results
CCCCCCCCCCCCn1cc(-c2noc([C@@H]3CCCN3C(=N)N)n2)c2ccccc21 [Compound 6j, (S)-Amino(2-(3-(1-dodecyl-1H-indol-3-yl)-1,2,4-oxadiazol-5-yl)pyrrolidin-1-yl)methaniminium chloride] | > 50 | –
CCCCCCCCCCn1cc(-c2noc([C@@H]3CCCN3C(=N)N)n2)c2ccccc21 [Compound 6h, (S)-Amino(2-(3-(1-decyl-1H-indol-3-yl)-1,2,4-oxadiazol-5-yl)pyrrolidin-1-yl)methaniminium chloride] | > 50 | –
